pIC50: −log10 of the molar value.
Tested on: 422866-222-R5-J1-PDC complex spheroid viability
Experiment: Anticancer human tumor 422866-222-R5-J1-PDC patient-derived pancreatic adenocarcinoma cell line growth inhibition [POLQ]
Conditions: for pIC50: curve of first compound; for viability, T/C: stronger effect = lower value
Description: Multicellular complex tumor spheroid response to Polymerase (POL) inhibitors (novobiocin, ART-558, RP6685) in combination with a variety of drugs and investigational agents in selected tumor cell lines
The POL inhibitors (novobiocin, ART-558, and RP6685) were evaluated both individually and in combination with standard of care and investigational anticancer small molecules within a complex spheroid model of solid tumors. . Complex spheroids include a stromal component modeled by human endothelial cells (HUVEC) and fibroblasts modeled by human mesenchymal stem cells (MSCs). The concentration ranges selected for each drug and investigational agent were based upon clinically achievable concentrations if the clinical Cmax of the agent was known.
Compounds. The drugs and investigational agents: novobiocin (NSC847541), ART-558 (NSC835418), RP-6685 (NSC848927), peposertib (NSC802822), ceralasertib (NSC780249), elimusertib (NSC800525), camonsertib (NSC841442), AZD-1390 (NSC803789), olaparib (NSC753686), talazoparib (NSC767125), rucaparib (NSC756644), sotorasib (NSC818433), MRTX-1133 (NSC836407), SN-38 (NSC673596), topotecan (NSC609699), epotoside (NSC141540), doxorubicin (NSC123127), gemcitabine (NSC613327), 5-fluorouracil (NSC19893), paclitaxel (NSC125973), vemurafenib (NSC761431), MSA-2 (NSC828583), SN-011 (NSC837082), adavosertib (NSC754352), prexasertib (NSC758257), carboplatin (NSC241240) and oxaliplatin (NSC266046), were obtained from the National Cancer Institute (NCI) Developmental Therapeutics Program Chemical Repository (21). The FDA-approved anticancer drug set is available from the Developmental Therapeutics Program at https://dtp.cancer.gov/organization/dscb/obtaining/. […] The stock solutions were prepared in dimethyl sulfoxide (DMSO, Sigma-Aldrich, St. Louis, MO, cat. D2650), except for the platinum compounds which were prepared in saline (Quality Biological, Gaithersburg, MD, cat. 114-055-101), at 800-fold the tested concentration and stored at -70 degrees C prior to their use. All drugs and investigational agents were tested over a range starting from a high concentration at or near the clinical Cmax and decreasing in half-log increments. If the clinical Cmax for an agent had not been determined, the highest concentration tested was 10 microM, except for SN-38, which was tested at a high concentration of 1 microM.
Cell Culture. All cells were maintained in an incubator at 37 degrees C and 5% CO2 with 95% humidity. The PDC lines were cultured according to standard operating procedures established by the NCI PDMR (https://pdmr.cancer.gov). Table 3 of the manuscript, lists the cell lines along with the number of the three cell types plated to form the mct-spheroids and media for tumor cell growth. After thawing, all PDC lines, except 997537-175-T-J1-PDC and 415267-285-R-J2-PDC, were cultured in Matrigel-coated flasks prepared with a working solution of 1X Ham's F-12 nutrient mix, without supplementation (Thermo Fisher Scientific, cat. 11765054), 100 U/mL penicillin-streptomycin (Thermo Fisher Scientific, cat. 15140122), and 2.5% Matrigel (Corning Inc., Corning, NY, cat. 354248) for the first three passages. The two PDC lines 997537-175-T-J1-PDC and 415267-285-R-J2-PDC were cultured on uncoated flasks. The 857933-349-R-J2-PDC line was cultured in 6C/Colon 1B media containing advanced DMEM/F-12 (Thermo Fisher Scientific, cat. 12634028), 10 mM HEPES (Thermo Fisher Scientific, cat. 15630080), 1X GlutaMAX supplement (Thermo Fisher Scientific, cat. 35050061), 0.1 mg/mL primocin (InvivoGen, San Diego, CA, cat. ant-pm-2), 10% defined fetal bovine serum, heat inactivated (HyClone Laboratories Inc., Logan, UT, cat. SH30070.03HI), 50% L-WRN conditioned media (ATCC, cat. CRL-3276), 1.25 mM N-Acetyl-L-cysteine (Sigma-Aldrich, cat. A9165), 10 mM nicotinamide (Sigma-Aldrich, cat. N0636), 1X B-27 supplement (Thermo Fisher Scientific, cat. 17504044), 1X N-2 supplement (Thermo Fisher Scientific, cat. […]
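Further: spheroids exposed to compounds for one week before readout.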
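Wherever viability, T/C is given: percent of DMSO vehicle wells luminescence so 100% = untreated viability.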

Compound `O=c1[nH]cc(F)c(=O)[nH]1` + COC1C(OC(N)=O)C(O)C(Oc2ccc3c(O)c(NC(=O)c4ccc(O)c(CC=C(C)C)c4)c(=O)oc3c2C)OC1(C)C has a pIC50 (second compound 0.0316 µM) of less than 5.00, a pIC50 (second compound 0.1 µM) of less than 5.00 and a pIC50 (second compound 0.316 µM) of less than 5.00. It also gave a pIC50 (second compound 1 µM) of less than 5.00, a pIC50 (second compound 3.16 µM) of less than 5.00 and a pIC50 (second compound 10 µM) of less than 5.00. The viability, T/C (second compound 0.0316 µM, first compound 0.0316 µM) was 103%, the viability, T/C (second compound 0.0316 µM, first compound 0.1 µM) was 99.7% and the viability, T/C (second compound 0.0316 µM, first compound 0.316 µM) was 102%. The viability, T/C (second compound 0.0316 µM, first compound 1 µM) was 98.9%, the viability, T/C (second compound 0.0316 µM, first compound 3.16 µM) was 82.7% and the viability, T/C (second compound 0.0316 µM, first compound 10 µM) was 78.5%. It also gave a viability, T/C (second compound 0.1 µM, first compound 0.0316 µM) of 109%, a viability, T/C (second compound 0.1 µM, first compound 0.1 µM) of 116% and a viability, T/C (second compound 0.1 µM, first compound 0.316 µM) of 99.7%. It also gave a viability, T/C (second compound 0.1 µM, first compound 1 µM) of 82.9%, a viability, T/C (second compound 0.1 µM, first compound 3.16 µM) of 82.5% and a viability, T/C (second compound 0.1 µM, first compound 10 µM) of 79%. For the same compound, the viability, T/C (second compound 0.316 µM, first compound 0.0316 µM) was 109%, the viability, T/C (second compound 0.316 µM, first compound 0.1 µM) was 105% and the viability, T/C (second compound 0.316 µM, first compound 0.316 µM) was 93.5%. The viability, T/C (second compound 0.316 µM, first compound 1 µM) was 92.1%, the viability, T/C (second compound 0.316 µM, first compound 3.16 µM) was 84.8% and the viability, T/C (second compound 0.316 µM, first compound 10 µM) was 84%. For the same compound, the viability, T/C (second compound 1 µM, first compound 0.0316 µM) was 107%, the viability, T/C (second compound 1 µM, first compound 0.1 µM) was 108% and the viability, T/C (second compound 1 µM, first compound 0.316 µM) was 93.2%. The viability, T/C (second compound 1 µM, first compound 1 µM) was 90.5%, the viability, T/C (second compound 1 µM, first compound 3.16 µM) was 72.2% and the viability, T/C (second compound 1 µM, first compound 10 µM) was 80.8%. The viability, T/C (second compound 3.16 µM, first compound 0.0316 µM) was 98%, the viability, T/C (second compound 3.16 µM, first compound 0.1 µM) was 94.1% and the viability, T/C (second compound 3.16 µM, first compound 0.316 µM) was 102%. For the same compound, the viability, T/C (second compound 3.16 µM, first compound 1 µM) was 89.2%, the viability, T/C (second compound 3.16 µM, first compound 3.16 µM) was 81.8% and the viability, T/C (second compound 3.16 µM, first compound 10 µM) was 82.5%. For the same compound, the viability, T/C (second compound 10 µM, first compound 0.0316 µM) was 103%, the viability, T/C (second compound 10 µM, first compound 0.1 µM) was 98% and the viability, T/C (second compound 10 µM, first compound 0.316 µM) was 99.9%. For the same compound, the viability, T/C (second compound 10 µM, first compound 1 µM) was 79.9%, the viability, T/C (second compound 10 µM, first compound 3.16 µM) was 77.7% and the viability, T/C (second compound 10 µM, first compound 10 µM) was 81.4%.
